The subject of this experiment is batrachotoxin (BTX) binding site of the sodium channel. In words: Affinity for the batrachotoxin (BTX) binding site of the sodium channel ([3H]-Batrachotoxinin A20 benzoate, rat cerebrocortex synaptosomes). As to conditions: [3H]-Batrachotoxinin A20 benzoate 10 nM, test concentration not given.
Regarding `CC(C)(C)c1ccc(C(=O)Nc2ncc3c(n2)CCN(S(=O)(=O)c2ccc4c(c2)OCCO4)C3)cc1` [Example 186, 4-tert-butyl-N-[6-(2,3-dihydro-benzo[1,4]dioxin-6-sulfonyl)-5,6,7,8-tetrahydro-pyrido[4,3-d]pyrimidin-2-yl]-benzamide], the BTX inhibition came to 77.

Take `O=C(Nc1ncc2c(n1)CCN(S(=O)(=O)c1cccc(Br)c1)C2)c1cccc(Cl)c1` [Example 125, N-[6-(3-bromo-benzenesulfonyl)-5,6,7,8-tetrahydro-pyrido[4,3-d]pyrimidin-2-yl]-3-chloro-benzamide]: the BTX inhibition stood at 66. Regarding `Cc1cc(C(=O)NC2CCc3nc(NC(=O)c4cccs4)ncc3C2)ccc1Br` (centres unmarked) [Example 115, thiophene-2-carboxylic acid [6-(4-bromo-3-methyl-benzoylamino)-5,6,7,8-tetrahydro-quinazolin-2-yl]-amide], the BTX inhibition is 82. In the case of `O=C(Nc1ncc2c(n1)CCN(C(=O)C1CCc3ccccc3C1)C2)c1cccc(F)c1` (centres unmarked) [Example 141, 3-fluoro-N-[6-(1,2,3,4-tetrahydro-naphthalene-2-carbonyl)-5,6,7,8-tetrahydro-pyrido[4,3-d]pyrimidin-2-yl]-benzamide], the BTX inhibition stood at 63. As for `CCOc1ccccc1C(=O)Nc1ncc2c(n1)CCN(C(=O)c1sccc1Cl)C2` [Example 145, N-[6-(3-chloro-thiophene-2-carbonyl)-5,6,7,8-tetrahydro-pyrido[4,3-d]pyrimidin-2-yl]-2-ethoxy-benzamide], the figure is 46; as for `CCCCC(C)CCC(=O)N1CCc2nc(NC(=O)c3cccc4ccccc34)ncc2C1` (centres unmarked) [Example 193, naphthalene-1-carboxylic acid [6-(4-methyl-octanoyl)-5,6,7,8-tetrahydro-pyrido[4,3-d]pyrimidin-2-yl]-amide], 84. The molecule `CCc1ccc(C(=O)Nc2ncc3c(n2)CCN(C(=O)c2ccc(-n4cccn4)cc2)C3)cc1` [Example 74, 4-ethyl-N-[6-(4-pyrazol-1-yl-benzoyl)-5,6,7,8-tetrahydro-pyrido[4,3-d]pyrimidin-2-yl]-benzamide] returned a BTX inhibition of 66. For the molecule `O=C(Nc1ncc2c(n1)CCN(C(=O)c1ccc(Cl)c(Cl)c1)C2)c1ccccc1F` [Example 113, N-[6-(3,4-dichloro-benzoyl)-5,6,7,8-tetrahydro-pyrido[4,3-d]pyrimidin-2-yl]-2-fluoro-benzamide], the BTX inhibition is reported as 38.

As for `O=C(Nc1ncc2c(n1)CCN(C(=O)c1ccc(-c3cccs3)cc1)C2)c1cc(Cl)cc(Cl)c1` [Example 144, 3,5-dichloro-N-[6-(4-thiophen-2-yl-benzoyl)-5,6,7,8-tetrahydro-pyrido[4,3-d]pyrimidin-2-yl]-benzamide], the BTX inhibition stood at 81. `COc1ccccc1C(=O)Nc1ncc2c(n1)CCN(S(=O)(=O)c1ccc(Cl)s1)C2` [Example 86, N-[6-(5-chloro-thiophene-2-sulfonyl)-5,6,7,8-tetrahydro-pyrido[4,3-d]pyrimidin-2-yl]-2-methoxy-benzamide] came in with a BTX inhibition of 62.

For `CCCC(=O)Nc1ncc2c(n1)CCC(NS(=O)(=O)c1ccc(C(C)(C)CC)cc1)C2` (centres unmarked) [Example 167, N-{6-[4-(1,1-dimethyl-propyl)-benzenesulfonylamino]-5,6,7,8-tetrahydro-quinazolin-2-yl}-butyramide], the BTX inhibition is listed as 51.

Take `Cc1ccc([N+](=O)[O-])cc1S(=O)(=O)N1CCc2nc(NC(=O)c3ccccc3F)ncc2C1` [Example 150, 2-fluoro-N-[6-(2-methyl-5-nitro-benzenesulfonyl)-5,6,7,8-tetrahydro-pyrido[4,3-d]pyrimidin-2-yl]-benzamide]: the BTX inhibition worked out at 49. Take `CCc1ccc(C(=O)Nc2ncc3c(n2)CCN(S(=O)(=O)c2ccccc2Cl)C3)cc1` [Example 114, N-[6-(2-chloro-benzenesulfonyl)-5,6,7,8-tetrahydro-pyrido[4,3-d]pyrimidin-2-yl]-4-ethyl-benzamide]: the BTX inhibition was 82.

The molecule `CC(C)C(NC(=O)OCC1c2ccccc2-c2ccccc21)C(=O)NC1CCc2nc(NC(=O)c3cccs3)ncc2C1` (centres unmarked) [Example 139, (2-methyl-1-{2-[(thiophene-2-carbonyl)-amino]-5,6,7,8-tetrahydro-quinazolin-6-ylcarbamoyl}-propyl)-carbamic acid 9H-fluoren-9-ylmethyl ester] registered a BTX inhibition of 62. Take `Cc1nc(C)c(S(=O)(=O)N2CCc3nc(NC(=O)c4ccc(Cl)cc4)ncc3C2)s1` [Example 79, 4-chloro-N-[6-(2,4-dimethyl-thiazole-5-sulfonyl)-5,6,7,8-tetrahydro-pyrido[4,3-d]pyrimidin-2-yl]-benzamide]: the BTX inhibition came to 34. `O=C(Nc1ncc2c(n1)CCC(NS(=O)(=O)c1cc(Cl)sc1Cl)C2)c1cccs1` (centres unmarked) [Example 180, thiophene-2-carboxylic acid [6-(2,5-dichloro-thiophene-3-sulfonylamino)-5,6,7,8-tetrahydro-quinazolin-2-yl]-amide] returned a BTX inhibition of 46.

The molecule `O=C(Nc1ncc2c(n1)CCN(C(=O)Cc1ccc(C(F)(F)F)cc1)C2)c1ccccc1` [Example 155, N-{6-[2-(4-trifluoromethyl-phenyl)-acetyl]-5,6,7,8-tetrahydro-pyrido[4,3-d]pyrimidin-2-yl}-benzamide] yielded a BTX inhibition of 62. In the case of `COc1ccccc1C(=O)Nc1ncc2c(n1)CCN(C(=O)c1cc(-c3ccc(Cl)cc3)oc1C)C2` [Example 78, N-{6-[5-(4-chloro-phenyl)-2-methyl-furan-3-carbonyl]-5,6,7,8-tetrahydro-pyrido[4,3-d]pyrimidin-2-yl}-2-methoxy-benzamide], the BTX inhibition came out at 31. The value for `O=C(Nc1ncc2c(n1)CCN(C(=O)c1ccc(F)cc1F)C2)c1ccc(Cl)cc1` [Example 152, 4-chloro-N-[6-(2,4-difluoro-benzoyl)-5,6,7,8-tetrahydro-pyrido[4,3-d]pyrimidin-2-yl]-benzamide] was 55. Consider `O=C(Nc1ncc2c(n1)CCN(C(=O)Cc1c(Cl)cccc1Cl)C2)c1cccc(Cl)c1` [Example 187, 3-chloro-N-{6-[2-(2,6-dichloro-phenyl)-acetyl]-5,6,7,8-tetrahydro-pyrido[4,3-d]pyrimidin-2-yl}-benzamide], for which the BTX inhibition is 43. As for `Cc1cc(C)c(C)c(S(=O)(=O)N2CCc3nc(NC(=O)c4cccs4)ncc3C2)c1C` [Example 99, thiophene-2-carboxylic acid [6-(2,3,5,6-tetramethyl-benzenesulfonyl)-5,6,7,8-tetrahydro-pyrido[4,3-d]pyrimidin-2-yl]-amide], the BTX inhibition was determined as 78.

`O=C(Nc1ncc2c(n1)CCN(C(=O)c1c(F)cccc1Cl)C2)c1cccc(Cl)c1` [Example 127, 3-chloro-N-[6-(2-chloro-6-fluoro-benzoyl)-5,6,7,8-tetrahydro-pyrido[4,3-d]pyrimidin-2-yl]-benzamide] returned a BTX inhibition of 30. Turning to `O=C(Nc1ncc2c(n1)CCN(C(=O)c1sc3ccccc3c1Cl)C2)c1ccccc1` [Example 120, N-[6-(3-chloro-benzo[b]thiophene-2-carbonyl)-5,6,7,8-tetrahydro-pyrido[4,3-d]pyrimidin-2-yl]-benzamide], the BTX inhibition was determined as 48. As for `COc1ccccc1C(=O)Nc1ncc2c(n1)CCN(S(=O)(=O)c1c(C)cc(OC)c(C)c1C)C2` [Example 158, 2-methoxy-N-[6-(4-methoxy-2,3,6-trimethyl-benzenesulfonyl)-5,6,7,8-tetrahydro-pyrido[4,3-d]pyrimidin-2-yl]-benzamide], the figure is 74. As for `CCc1ccc(C(=O)Nc2ncc3c(n2)CCN(S(=O)(=O)c2ccc(OC)cc2)C3)cc1` [Example 172, 4-ethyl-N-[6-(4-methoxy-benzenesulfonyl)-5,6,7,8-tetrahydro-pyrido[4,3-d]pyrimidin-2-yl]-benzamide], the figure is 57. The molecule `O=C(Nc1ncc2c(n1)CCN(C(=O)c1ccc(OC(F)(F)F)cc1)C2)c1cc(Cl)cc(Cl)c1` [Example 192, 3,5-dichloro-N-[6-(4-trifluoromethoxy-benzoyl)-5,6,7,8-tetrahydro-pyrido[4,3-d]pyrimidin-2-yl]-benzamide] showed a BTX inhibition of 87.

The values above are taken from US20090176811A1, “Substituted 5,6,7,8-Tetrahydro-pyrido[4,3-d]pyrimidine-2-yl Compounds and 5,6,7,8-Tetrahydro-quinazoline-2-yl Compounds” (GRUENENTHAL GmbH, priority 2004, published 2009).
